Results reported in article PMC11161644, “An effective and rapidly degradable disinfectant from disinfection byproducts” (Nature Communications, 2024).

Assay: UPLC/ESI-tqMS time profile of 2,6-DCQ and its degradation products in simulated seawater (pH 8.2, darkness); OH-DCQ formation
Conditions: for Concentration: 2,6-DCQ degradation / OH-DCQ formation; for Peak area: 2,6-DCQ degradation
Description: A Waters UPLC system coupled with ESI-tqMS was used to characterize the degradation products of 2,6-DCQ. The UPLC separation was performed using an HSS T3 column (100 × 2.1 mm, 1.8 μm particle size, Waters) with a column temperature of 35 °C. A gradient eluent of methanol–water was applied at a flow rate of 0.4 mL min^−1. The gradient program was set as follows: methanol/water (v/v) ratio changed linearly from 5/95 to 90/10 in the first 8 min and then returned to 5/95 during 8.0‒8.1 min, which was held for 2.9 min for re-equilibration. The ESI-tqMS was set as follows: ESI negative mode, capillary voltage 2.8 kV, cone voltage 10–50 V (depending on analytes), cone gas flow 50 L h^−1, source temperature 120 °C, desolvation temperature 400 °C, desolvation gas flow 800 L h^−1, collision energy 15–50 eV (depending on analytes), collision gas (argon) flow 0.25 mL min^−1, and mass resolution 15 (1-unit resolution).
The degradation of 2,6-DCQ in seawater was simulated by adding 10 mg L^−1 2,6-DCQ to 50 mL ultrapure water, which was adjusted to pH 8.2 with 5 mM sodium carbonate (to simulate the alkalinity in seawater and also to be compatible with the subsequent UPLC/ESI-tqMS analysis). The sample was kept in darkness for 0–24 h, during which the pH of the sample was maintained at 8.1 ± 0.1. At a designated reaction time, 7.5 μL of the sample was injected into the UPLC system. For a nonhalogenated degradation product, the selected ion recording (SIR) mode with a dwell time of 0.05 s was adopted to obtain the retention time. For halogenated degradation products, the multiple reaction monitoring mode with a dwell time of 0.05 s was used to obtain the retention time and the isotopic abundance ratio. To investigate the time-dependent profile of 2,6-DCQ and its degradation products, the peak area of each compound was determined using the SIR mode in the UPLC/ESI-tqMS analysis.
The second aliquot was subjected to analysis of total organic halogen to quantify the collected OH-DCQ. The determination of total organic halogen was based on Standard Method 5320B[52], with modifications of using off-line ion chromatography for halide detection. Briefly, the aliquot was dissolved in 100 mL ultrapure water and acidified to pH 2 with concentrated nitric acid[52] prior to adsorption onto pre-packed activated carbon columns (Mitsubishi). A three-channel adsorption module (TXA03C, Mitsubishi Chemical Analytech) was used for adsorption. An AQF-100 automatic quick furnace (Mitsubishi Chemical Analytech) was used for pyrolysis. During the pyrolysis process, the chlorine atoms in OH-DCQ were converted to chloride. The chloride ion concentration was determined using an ICS-3000 ion chromatography system (Dionex). 2,6-DCQ was used as a standard compound for measuring total organic halogen to determine the recovery of the analysis. The total organic halogen analysis was conducted in duplicate.

With `O=C1C=C(Cl)C(=O)C(Cl)=C1O` [OH-DCQ, 3-hydroxyl-2,6-dichloro-1,4-benzoquinone] the “Degradation time at which concentration reached its maximum” value (10 mg L−1, pH 8.2) was 5.5 h, the Concentration (degradation time 0 h) was 388.2 ng/mL and the Concentration (degradation time 0.25 h) was 1568 ng/mL. The Concentration (degradation time 0.5 h) was 2136 ng/mL, the Concentration (degradation time 0.75 h) was 2523 ng/mL and the Concentration (degradation time 1 h) was 2564 ng/mL. For the same compound, the Concentration (degradation time 1.25 h) was 2851 ng/mL, the Concentration (degradation time 1.5 h) was 2913 ng/mL and the Concentration (degradation time 1.75 h) was 3134 ng/mL. For the same compound, the Concentration (degradation time 2 h) was 3157 ng/mL, the Concentration (degradation time 2.25 h) was 3402 ng/mL and the Concentration (degradation time 2.5 h) was 3558 ng/mL. The Concentration (degradation time 2.75 h) was 3742 ng/mL, the Concentration (degradation time 3 h) was 3837 ng/mL and the Concentration (degradation time 3.25 h) was 4027 ng/mL. For the same compound, the Concentration (degradation time 3.5 h) was 4055 ng/mL, the Concentration (degradation time 3.75 h) was 4030 ng/mL and the Concentration (degradation time 4 h) was 4244 ng/mL. For the same compound, the Concentration (degradation time 4.5 h) was 4217 ng/mL, the Concentration (degradation time 5 h) was 4099.6 ng/mL and the Concentration (degradation time 5.5 h) was 4364 ng/mL. For the same compound, the Concentration (degradation time 6 h) was 4268 ng/mL, the Concentration (degradation time 8 h) was 4192.4 ng/mL and the Concentration (degradation time 10 h) was 3830 ng/mL. It also gave a Concentration (degradation time 12 h) of 3886 ng/mL, a Concentration (degradation time 14 h) of 3910 ng/mL and a Concentration (degradation time 16 h) of 3929.8 ng/mL. The Concentration (degradation time 18 h) was 3711 ng/mL, the Concentration (degradation time 20 h) was 3724 ng/mL and the Concentration (degradation time 24 h) was 3646 ng/mL. The Peak area (pH 8.2, darkness, 0 h) was 2432, the Peak area (pH 8.2, darkness, 0.25 h) was 9916 and the Peak area (pH 8.2, darkness, 0.5 h) was 13509. For the same compound, the Peak area (pH 8.2, darkness, 0.75 h) was 15961, the Peak area (pH 8.2, darkness, 1 h) was 16217 and the Peak area (pH 8.2, darkness, 1.25 h) was 18034. The Peak area (pH 8.2, darkness, 1.5 h) was 18424, the Peak area (pH 8.2, darkness, 1.75 h) was 19823 and the Peak area (pH 8.2, darkness, 2 h) was 19969. For the same compound, the Peak area (pH 8.2, darkness, 2.25 h) was 21520, the Peak area (pH 8.2, darkness, 2.5 h) was 22505 and the Peak area (pH 8.2, darkness, 2.75 h) was 23670. It also gave a Peak area (pH 8.2, darkness, 3 h) of 24273, a Peak area (pH 8.2, darkness, 3.25 h) of 25472 and a Peak area (pH 8.2, darkness, 3.5 h) of 25650. It also gave a Peak area (pH 8.2, darkness, 3.75 h) of 25488, a Peak area (pH 8.2, darkness, 4 h) of 26847 and a Peak area (pH 8.2, darkness, 4.5 h) of 26676. The Peak area (pH 8.2, darkness, 5 h) was 25931, the Peak area (pH 8.2, darkness, 5.5 h) was 27605 and the Peak area (pH 8.2, darkness, 6 h) was 26995. It also gave a Peak area (pH 8.2, darkness, 8 h) of 26518, a Peak area (pH 8.2, darkness, 10 h) of 24223 and a Peak area (pH 8.2, darkness, 12 h) of 24578. It also gave a Peak area (pH 8.2, darkness, 14 h) of 24730, a Peak area (pH 8.2, darkness, 16 h) of 24857 and a Peak area (pH 8.2, darkness, 18 h) of 23474. The Peak area (pH 8.2, darkness, 20 h) was 23553, the Peak area (pH 8.2, darkness, 24 h) was 23064 and the “Maximum concentration as share of initial molar concentration of 2,6-DCQ” value (pH 8.2, darkness) was 41%.
